Format in all cases: cell-based, human
Data set [1] has as its system XIAP mRNA. In words: XIAP mRNA knock-down in H460 cells (real-time RT-PCR / TaqMan). The note with it: 2 × 2 MBO; NCI-H460 cells, 9 hours post-transfection; relative level (mock control 1.01). A general note: Real-time PCR tracks product formation cycle by cycle.
Data set [2] deals with XIAP mRNA. The description is as above. The procedure, abridged:
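NCI-H460 cells transfected with phosphorothioate antisense oligonucleotides via Lipofectamine 2000; RNA isolated after 6 h treatment. XIAP mRNA quantified by one-step TaqMan real-time RT-PCR, comparative Ct (threshold 30× baseline SD), normalized to GAPDH and expressed relative to untreated control cells.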

A further data set deals with XIAP protein. In words: XIAP protein knock-down in T24 cells (XIAP ELISA, relative to total protein). To be noted: for XIAP protein levels relative to total protein, compared to mock transfection (in words): first screen of the library. The source says:
(§1) We used TaqMan quantitative PCR (described below) to assay for changes in mRNA levels after oligonucleotide treatment. We employed ELISA for determining XIAP protein levels and western blotting for determining HIAP1 protein levels. Transfection conditions were optimized with Lipofectamine plus or Lipofectamine 2000 (Life Technologies, Canada) on T24 bladder carcinoma cells or H460 non-small cell lung carcinoma cells, or lipofectin on SF-295 glioblastoma cells, using a fluorescein-tagged sense oligonucleotide (5′-mGmAGAAGATGACTGGTAAmCmA-3′; SEQ ID NO: 261) from XIAP spanning the start codon as a control. The results were visualized and gauged by epi-fluorescence microscopy. In the case of T24 cells, transfections were further optimized based on the ability of a published oligonucleotide to downregulate survivin expression (Li et al., Nat. Cell Biol. 1:461-466, 1999) (5′-U/TGTGCTATTCTGTGAAU/TU/T-3′ SEQ ID NO: 262). We optimized the transfection conditions based on the TaqMan results of survivin RNA knock-down detected with PCR primers and fluorescent probe, described in detail below. […] We then applied these conditions to screen for XIAP protein knock-down using the oligo library against T24 cells.
A standard colorimetric XIAP ELISA assay was performed using an affinity-purified rabbit polyclonal antibody to XIAP as a capture antibody, and was detected with a XIAP monoclonal antibody (MBL, Japan) and a biotinylated anti-mouse Ig antibody and horseradish peroxidase-conjugated streptavidin and TMB substrate. Alternatively, a polyclonal XIAP or HIAP1 antibody may be used to measure XIAP or HIAP1 protein levels, respectively.
The XIAP synthetic library of 96 antisense oligonucleotides was first screened for decreases in XIAP protein levels. Specifically, T24 cells (1.5×10^4 cells/well) were seeded in wells of a 96-well plate on day 1, and were cultured in antibiotic-free McCoy's medium for 24 hours. On day 2, the cells were transfected with XIAP antisense oligonucleotides as described above (oligonucleotides are labeled according to their plated position, i.e., A1 to H12, and include two repeats, A13 and B13 that contain lyophilized DNA pellets that stuck to the sealing membrane). Briefly, the nucleobase oligomers were diluted in 10 μl/well of serum-free, antibiotic-free McCoy's medium and then PLUS reagent was added. Lipofectamine was diluted in 10 μl/well of serum-free, antibiotic-free McCoy's medium, and both mixes were incubated for 15 minutes at room temperature. The mixes were then combined and incubated for 15 minutes at room temperature.
In the meantime, the complete medium was removed from the cells and 50 μl/well of serum-free, antibiotic-free medium was added to the cells. The transfection mixes were added to the well, and the cells were incubated for three hours. Then 30 μl/well of serum-free, antibiotic-free medium and 100 μl/well of antibiotic-free complete medium, containing 20% fetal bovine serum were added to each well.
At day 3, XIAP RNA levels were measured using quantitative real-time PCR techniques, as described above. At day 4, XIAP protein levels were measured by ELISA (FIGS. 1A, 1C, 1E, 1G, 1I, and 1K), and total cellular protein was measured biochemically (FIGS. 1B, 1D, 1F, 1H, 1J, and 1L; used to normalize the XIAP protein levels). The results were compared to a mock transfection sample (treated with the transfection agent but no oligonucleotide DNA was added, and then processed as for the other samples). Time course experiments determined that the optimal time for protein knock-down to be around 12 to 24 hours. […]
A general note: ELISA stands for enzyme-linked immunosorbent assay.

A further data set concerns XIAP RNA. In words: XIAP RNA knock-down in T24 cells (TaqMan quantitative PCR).
From the text: as §1
RNA was extracted from cells lysed in RLT buffer (QIAGEN, Valencia, Calif.), and purified using QIAGEN RNeasy columns/kits. Real-time quantitative PCR was performed on a Perkin-Elmer ABI 7700 Prism PCR machine. RNA was reverse transcribed and amplified according to the TaqMan Universal PCR Master Mix protocol of PE Biosystems, using primers and probes designed to specifically recognize XIAP, HIAP1, survivin, or GAPDH. For human survivin, the forward primer was 5′-[…]-3′ (SEQ ID NO: 263), the reverse primer was 5′-GAAAGGAAAGCGCAACCG-3′ (SEQ ID NO: 264), and the probe was 5′-(FAM)[…](TAMRA)-3′ (SEQ ID NO: 265). For human HIAP1, the forward primer was 5′-[…]-3′ (SEQ ID NO: 266), the reverse primer was 5′-[…]-3′ (SEQ ID NO: 267), and the probe was 5′-(FAM)[…](TAMRA)-3′ (SEQ ID NO: 268). For human XIAP, the forward primer was 5′-[…]-3′ (SEQ ID NO: 269), the reverse primer was 5′-[…]-3′ (SEQ ID NO: 270), and the probe was 5′-(FAM)[…](TAMRA)-3′ (SEQ ID NO: 271). For human GAPDH, the forward primer was 5′-GAAGGTGAAGGTCGGAGTC-3′ (SEQ ID NO: 272), the reverse primer was 5′-GAAGATGGTGATGGGATTC-3′ (SEQ ID NO: 273), and the probe was 5′-(JOE)[…](TAMRA)-3′ (SEQ ID NO: 274). FAM is 6-carboxyfluoroscein, JOE is 6-carboxy-4,5-dichloro-2,7-dimethoxyfluoroscein, and TAMRA is 6-carboxy-N,N,N′,N′-tetramethylrhodamine. FAM and JOE are 5′ reporter dyes, while TAMRA is a 3′ quencher dye.
Relative quantification of gene expression was performed as described in the PE Biosystems manual using GAPDH as an internal standard. The comparative Ct (cycle threshold) method was used for relative quantitation of IAP mRNA levels compared to GAPDH mRNA levels. Briefly, real-time fluorescence measurements were taken at each PCR cycle and the threshold cycle (Ct) value for each sample was calculated by determining the point at which fluorescence exceeded a threshold limit of 30 times the baseline standard deviation. The average baseline value and the baseline SD are calculated starting from the third cycle baseline value and stopping at the baseline value three cycles before the signal starts to exponentially rise. The PCR primers and/or probes for the specific IAPs were designed to span at least one exon-intron boundary separated by 1 kb or more of genomic DNA, to reduce the possibility of amplifying and detecting genomic DNA contamination. The specificity of the signal, and possible contamination from DNA, were verified by treating some RNA samples with either DNase or RNase, prior to performing the reverse transcription and PCR reaction steps.
The XIAP synthetic library of 96 antisense oligonucleotides was first screened for decreases in XIAP protein levels. […]

Oligonucleotides are written 5' to 3', each unit as a sugar letter and its base; * is a phosphorothioate linkage, no mark a phosphodiester; rarer units and linkages stand in square brackets, end groups in braces. Plain capitals give the bases only. d = 2'-deoxy (DNA); m = 2'-O-methyl

With “AATATGTAAACTGTGATGC (mA*mAdTdAdTdGdTdAdAdAdCdTdGdTdGdAdTmG*mC; antisense) [Code C2]”, the “XIAP RNA” value in the data set on XIAP mRNA [1] amounted to 0.33. For the same sequence, the “XIAP down-regulation H460 RNA” value in the data set on XIAP mRNA [2] is on record as 70%. For the same sequence, in the data set with XIAP protein, the “XIAP down-regulation T24 protein” value is 45% and the “XIAP protein levels relative to total protein, compared to mock transfection (in words)” value is reported as “some decrease”. For the same sequence, in the data set with XIAP RNA, the “XIAP down-regulation T24 RNA” value was 36%.

Regarding “CAGGGTTCCTCGGGTATAT (antisense; sugars from the 5' end m2 d15 m2, backbone and T or U not given here; further chemistry not fully specified) [Code B6]”, in the data set on XIAP protein, the “XIAP down-regulation T24 protein” value is on record as 47% and the “XIAP protein levels relative to total protein, compared to mock transfection (in words)” value is on record as “some decrease”. For the same sequence, in the data set on XIAP RNA, the “XIAP down-regulation T24 RNA” value was 51%.

Take “CTACAGCTGCATGACAACT (antisense; sugars from the 5' end m2 d15 m2, backbone and T or U not given here; further chemistry not fully specified) [Code F4]”: in the data set with XIAP protein, the “XIAP down-regulation T24 protein” value amounted to 43% and the “XIAP protein levels relative to total protein, compared to mock transfection (in words)” value is listed as “some decrease”. Moreover, in the data set with XIAP RNA, the “XIAP down-regulation T24 RNA” value came to 33%.

As to “CTTGTCCACCTTTTCTAAA (antisense; sugars from the 5' end m2 d15 m2, backbone and T or U not given here; further chemistry not fully specified) [Code E3]”, the “XIAP RNA” value in the data set with XIAP mRNA [1] amounted to 0.48. Besides, the “XIAP down-regulation H460 RNA” value with XIAP mRNA [2] turned out to be 55%. Further, in the data set with XIAP protein, the “XIAP down-regulation T24 protein” value was determined as 64% and the “XIAP protein levels relative to total protein, compared to mock transfection (in words)” value was “some decrease”. Also, the “XIAP down-regulation T24 RNA” value with XIAP RNA stood at 53%.

Take “GAAAGGACTTTACTTTATC (antisense; sugars from the 5' end m2 d15 m2, backbone, methylation of C and T or U not given here; further chemistry not fully specified) [Code D8]”: in the data set on XIAP mRNA [1], the “XIAP RNA” value was 0.55. The “XIAP down-regulation H460 RNA” value with XIAP mRNA [2] was found to be 49%. Moreover, in the data set on XIAP protein, the “XIAP down-regulation T24 protein” value worked out at 26% and the “XIAP protein levels relative to total protein, compared to mock transfection (in words)” value is “some decrease”. Besides, the “XIAP down-regulation T24 RNA” value in the data set on XIAP RNA is 38%.

Turning to “GAAAGTAATATTTAAGCAG (antisense; chemistry not fully specified) [Code E2]”, the “XIAP down-regulation H460 RNA” value in the data set on XIAP mRNA [2] was 60%. Also, in the data set with XIAP protein, the “XIAP down-regulation T24 protein” value came to 51% and the “XIAP protein levels relative to total protein, compared to mock transfection (in words)” value is given as “some decrease”. The “XIAP down-regulation T24 RNA” value in the data set on XIAP RNA is listed as 54%.

On to “GCTGAGTCTCCATATTGCC [G4] (chemistry not fully specified) [Code G4]”, for which, in the data set with XIAP mRNA [2], the “XIAP down-regulation H460 RNA” value came out at 51%. Further, in the data set on XIAP protein, the “XIAP down-regulation T24 protein” value is listed as 48% and the “XIAP protein levels relative to total protein, compared to mock transfection (in words)” value was “some decrease”. Further, in the data set on XIAP RNA, the “XIAP down-regulation T24 RNA” value turned out to be 34%.

For “GTATAAAGAAACCCTGCTC (antisense; sugars from the 5' end m2 d15 m2, backbone and T or U not given here; further chemistry not fully specified) [Code D4]”, the “XIAP RNA” value in the data set on XIAP mRNA [1] is on record as 0.48. Moreover, in the data set with XIAP mRNA [2], the “XIAP down-regulation H460 RNA” value came out at 51%. Besides, in the data set with XIAP protein, the “XIAP down-regulation T24 protein” value stood at 43% and the “XIAP protein levels relative to total protein, compared to mock transfection (in words)” value is on record as “some decrease”. For the same sequence, the “XIAP down-regulation T24 RNA” value in the data set on XIAP RNA amounted to 12%.

Take “GTGTAGTAGAGTCCAGCAC (antisense; sugars from the 5' end m2 d15 m2, backbone, methylation of C and T or U not given here; further chemistry not fully specified) [Code F6]”: in the data set with XIAP protein, the “XIAP down-regulation T24 protein” value amounted to 39% and the “XIAP protein levels relative to total protein, compared to mock transfection (in words)” value is reported as “some decrease”. The “XIAP down-regulation T24 RNA” value in the data set with XIAP RNA amounted to 34%.

Turning to “GTTGTTCCCAAGGGTCTTC (antisense; sugars from the 5' end m2 d15 m2, backbone, methylation of C and T or U not given here; further chemistry not fully specified) [Code E8]”, in the data set on XIAP mRNA [2], the “XIAP down-regulation H460 RNA” value turned out to be 44%. The “XIAP down-regulation T24 protein” value in the data set on XIAP protein worked out at 56%. The “XIAP down-regulation T24 RNA” value with XIAP RNA is 72%.

Regarding “TGCCAGTGTTGATGCTGAA (antisense; chemistry not fully specified) [Code C4]”, in the data set with XIAP mRNA [1], the “XIAP RNA” value worked out at 0.22. Further, the “XIAP down-regulation H460 RNA” value in the data set with XIAP mRNA [2] worked out at 77%. In addition, in the data set on XIAP protein, the “XIAP down-regulation T24 protein” value is reported as 56% and the “XIAP protein levels relative to total protein, compared to mock transfection (in words)” value was “some decrease”. Moreover, the “XIAP down-regulation T24 RNA” value in the data set on XIAP RNA stood at 28%.
